Consider 18 compounds from patent publication US10227323B2, “Glucosylceramide synthase inhibitors for the treatment of diseases” (BIOMARIN PHARMACEUTICAL INC., priority 2013, dated 2019).

By IC50 is commonly meant the concentration needed to halve the response being measured.

For this experiment, the target named is T1, GCS (Canis lupus familiaris, UniProt A0A8I3MXG6).
T1 sequence (A0A8I3MXG6 1-394): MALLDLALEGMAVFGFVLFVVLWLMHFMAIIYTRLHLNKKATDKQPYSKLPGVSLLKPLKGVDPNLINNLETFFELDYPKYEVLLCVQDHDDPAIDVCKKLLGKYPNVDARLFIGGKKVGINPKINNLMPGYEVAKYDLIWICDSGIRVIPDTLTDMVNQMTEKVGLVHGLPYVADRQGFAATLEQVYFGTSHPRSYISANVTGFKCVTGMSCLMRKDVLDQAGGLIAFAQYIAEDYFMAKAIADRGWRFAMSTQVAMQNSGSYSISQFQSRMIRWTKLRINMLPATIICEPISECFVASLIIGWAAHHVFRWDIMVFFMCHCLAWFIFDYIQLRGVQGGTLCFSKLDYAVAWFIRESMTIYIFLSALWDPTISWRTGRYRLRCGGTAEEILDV
As to the kind of experiment: Assay 1: GCS Enzymatic Assay (MDCK cell lysate, C6-NBD-Ceramide, LC/MS). Particulars: Table 1, MDCK cell lysate; for IC50: read-out: IC50 (nM) generated from Assay 1; for % inhibition generated from Assay 1: values marked *. The format is biochemical, canine. How it is done:
This assay was modified based on the study by Larsen et al. (J. Lipid Res. 2011, 53, 282). Madin-Darby canine kidney (MDCK) cell lysate was prepared using M-PER Mammalian Protein Extraction Reagent (Thermal Scientific) in the presence of a protease inhibitor cocktail (Roche). Protein concentration was determined using BCA assay kit (Pierce). Sixty micrograms of MDCK cell lysate was incubated with various concentrations of a compound described herein from 0.001 μM-10 μM, respectively, in 100 mM Tris buffer (pH 7.5) containing 10 mM MgCl2, 1 mM dithiothreitol, 1 mM EGTA, 2 mM NAD, 100 μM UDP-glucose, 10 μM C6-NBD-Ceramide (Matreya LLC, Pleasant Gap, Pa.), 35 μM dioleoylphosphatidylcholine and 5 μM sulfatide (Sigma) in a final reaction volume of 100 μL at 37° C. for 1 hour. 0.1% DMSO was used as mock treatment or control. The reaction was terminated by adding 100 μL acetonitrile solution and subjected to LC/MS analysis.
The quantitative analysis of NBD-Ceramide and glucosylceramide was performed on a Shimadzu ultra-fast liquid chromatography (Shimadzu, Japan) coupled with API 4000 triple quadrupole mass spectrometer (Applied Biosystems, Concord, Ontario, Canada). Sample separation was conducted on a Waters Xbridge™ BEH130 C18, 100 mm×4.6 mm i.d, 3.5 μm (Milford, Mass., USA). The mobile phase consisted of water and acetonitrile supplemented with 0.1% formic acid (v/v). The flow rate was 1.0 mL/min. The initial mobile phase was 20% acetonitrile and was ramped in a linear fashion to 50% acetonitrile in 0.4 min. From 0.4 to 1.5 min, the gradient was ramped to 98% acetonitrile, and then was held at […] until 8.0 min. Acetonitrile was reset to 20% in 1.5 min, and maintained until 10.0 min. The total run time was 10.0 min. The MS/MS detection was performed in ESI positive mode. The mass transition of NBD-Ceramide was m/z 576.36→558.40 under the collision energy of 15 V, and the mass transition of glucosylceramide was m/z 738.35→558.40 under 21V collision energy. The cell lysate was diluted with equal volume of acetonitrile. Aliquots of 50 μL diluted samples were added to 1.5 mL tubes, and 100 μL of acetonitrile containing internal standard (100 ng/mL tolbutamide) were added for protein precipitation. The mixture were vortexed and then centrifuged at 13000 rpm for 10 min. 70 μL of supernatant were mixed with 140 μL of H2O and the final solution were injected for LC/MS/MS analysis and IC50's and/or percent inhibitions calculated.

Regarding `O=C(N[C@H](CN1CCCC1)[C@H](O)c1ccc2c(c1)OCCO2)C(F)(F)c1cc2cc(Cl)ccc2o1` [Compound 11, 2-(5-chlorobenzofuran-2-yl)-N-((1R,2R)-1-(2,3-dihydrobenzo[b][1,4]dioxin-6-yl)-1-hydroxy-3-(pyrrolidin-1-yl)propan-2-yl)-2,2-difluoroacetamide], the IC50 is under 50 nM.
Still for that read-out and setting: then `O=C(N[C@H](CN1CCCC1)[C@@H](O)c1cc2c(cc1F)OCCO2)C(F)(F)C1Cc2ccccc2C1` [Compound 12B, 2-(2,3-dihydro-1H-inden-2-yl)-2,2-difluoro-N-((1S,2R)-1-(7-fluoro-2,3-dihydrobenzo[b][1,4]dioxin-6-yl)-1-hydroxy-3-(pyrrolidin-1-yl)propan-2-yl)acetamide], with 50 to 5000 nM.
On the same count and under the same terms, then `O=C(N[C@H](CN1CCCC1)[C@H](O)c1ccc2c(c1)OCCO2)C(F)(F)C1Cc2cc3nccnc3cc2C1` [Compound 13, 2-(7,8-dihydro-6H-cyclopenta[g]quinoxalin-7-yl)-N-((1R,2R)-1-(2,3-dihydrobenzo[b][1,4]dioxin-6-yl)-1-hydroxy-3-(pyrrolidin-1-yl)propan-2-yl)-2,2-difluoroacetamide], with 50 to 5000 nM; and `Cn1c(C(F)(F)C(=O)N[C@H](CN2CCCC2)[C@H](O)c2ccc3c(c2)OCCO3)cc2cc(Cl)ccc21` [Compound 14, 2-(5-chloro-1-methyl-1H-indol-2-yl)-N-((1R,2R)-1-(2,3-dihydrobenzo[b][1,4]dioxin-6-yl)-1-hydroxy-3-(pyrrolidin-1-yl)propan-2-yl)-2,2-difluoroacetamide], with under 50 nM.
The same measure, in the same setting: then `O=C(N[C@H](CN1CCCC1)[C@H](O)c1ccc2c(c1)OCCO2)C(F)(F)c1cc2cc(Cl)cc(Cl)c2o1` [Compound 15, 2-(5,7-dichlorobenzofuran-2-yl)-N-((1R,2R)-1-(2,3-dihydrobenzo[b][1,4]dioxin-6-yl)-1-hydroxy-3-(pyrrolidin-1-yl)propan-2-yl)-2,2-difluoroacetamide], with under 50 nM.
Take `O=C(N[C@H](CN1CCCC1)[C@H](O)c1ccc2c(c1)OCCO2)C(F)(F)CCc1cccc(-c2ccccn2)c1` [Compound 16, N-((1R,2R)-1-(2,3-dihydrobenzo[b][1,4]dioxin-6-yl)-1-hydroxy-3-(pyrrolidin-1-yl)propan-2-yl)-2,2-difluoro-4-(3-(pyridin-2-yl)phenyl)butanamide]: the IC50 is under 50 nM.
For `O=C(N[C@H](CN1CCCC1)[C@H](O)c1ccc2c(c1)OCCO2)C(F)(F)Cc1ccc2ccccc2c1` [Compound 17, N-((1R,2R)-1-(2,3-dihydrobenzo[b][1,4]dioxin-6-yl)-1-hydroxy-3-(pyrrolidin-1-yl)propan-2-yl)-2,2-difluoro-3-(naphthalen-2-yl)propanamide], the IC50 was 50 to 5000 nM.
Regarding `O=C(N[C@H](CN1CCCC1)[C@H](O)c1ccc2c(c1)OCCO2)C(F)(F)c1cc2cc(Cl)c(Cl)cc2o1` [Compound 18, 2-(5,6-dichlorobenzofuran-2-yl)-N-((1R,2R)-1-(2,3-dihydrobenzo[b][1,4]dioxin-6-yl)-1-hydroxy-3-(pyrrolidin-1-yl)propan-2-yl)-2,2-difluoroacetamide], the “% inhibition generated from Assay 1” value is listed as “B* (the compound had a % inhibition of greater than or equal to about 3% but less than about 50%)”.
`O=C(N[C@H](CN1CCCC1)[C@H](O)c1ccc2c(c1)OCCO2)C(F)(F)c1cc2c(Cl)c(Cl)ccc2o1` [Compound 19, 2-(4,5-dichlorobenzofuran-2-yl)-N-((1R,2R)-1-(2,3-dihydrobenzo[b][1,4]dioxin-6-yl)-1-hydroxy-3-(pyrrolidin-1-yl)propan-2-yl)-2,2-difluoroacetamide]: the IC50 was under 50 nM.
Consider `O=C(N[C@H](CN1CCCC1)[C@H](O)c1ccc2c(c1)OCCO2)C(F)(F)Cc1cccc(-c2ccccn2)c1` [Compound 20, N-((1R,2R)-1-(2,3-dihydrobenzo[b][1,4]dioxin-6-yl)-1-hydroxy-3-(pyrrolidin-1-yl)propan-2-yl)-2,2-difluoro-3-(3-(pyridin-2-yl)phenyl)propanamide], for which the “% inhibition generated from Assay 1” value is reported as “B* (the compound had a % inhibition of greater than or equal to about 3% but less than about 50%)”.
`O=C(N[C@H](CN1CCCC1)[C@H](O)c1ccc2c(c1)OCCO2)C(F)(F)C1Cc2ccc(F)cc2C1` (stereo partly drawn) [Compound 21, N-((1R,2R)-1-(2,3-dihydrobenzo[b][1,4]dioxin-6-yl)-1-hydroxy-3-(pyrrolidin-1-yl)propan-2-yl)-2,2-difluoro-2-(5-fluoro-2,3-dihydro-1H-inden-2-yl)acetamide]: the concentration for half-maximal inhibition (IC50) was under 50 nM.
Still for that read-out and setting: then `O=C(N[C@H](CN1CCCC1)[C@H](O)c1ccc2c(c1)OCCO2)C(F)(F)CCc1ccc2ccccc2c1` [Compound 22, N-((1R,2R)-1-(2,3-dihydrobenzo[b][1,4]dioxin-6-yl)-1-hydroxy-3-(pyrrolidin-1-yl)propan-2-yl)-2,2-difluoro-4-(naphthalen-2-yl)butanamide], with under 50 nM.
Regarding `O=C(N[C@H](CN1CCCC1)[C@@H](O)c1ccc2c(c1)OCCO2)C(F)(F)CCc1ccc2ccccc2c1` [Compound 22K, N-((1S,2R)-1-(2,3-dihydrobenzo[b][1,4]dioxin-6-yl)-1-hydroxy-3-(pyrrolidin-1-yl)propan-2-yl)-2,2-difluoro-4-(naphthalen-2-yl)butanamide], the “% inhibition generated from Assay 1” value was “B* (the compound had a % inhibition of greater than or equal to about 3% but less than about 50%)”.
`O=C(N[C@H](CN1CCCC1)[C@H](O)c1ccc2c(c1)OCCO2)C(F)(F)c1cc2ccccc2o1` [Compound 23, 2-(benzofuran-2-yl)-N-((1R,2R)-1-(2,3-dihydrobenzo[b][1,4]dioxin-6-yl)-1-hydroxy-3-(pyrrolidin-1-yl)propan-2-yl)-2,2-difluoroacetamide]: the IC50 is under 50 nM.
Consider `O=C(N[C@H](CN1CCCC1)[C@H](O)c1ccc2c(c1)OCCO2)C(F)(F)c1cc2cc(F)ccc2o1` [Compound 24, N-((1R,2R)-1-(2,3-dihydrobenzo[b][1,4]dioxin-6-yl)-1-hydroxy-3-(pyrrolidin-1-yl)propan-2-yl)-2,2-difluoro-2-(5-fluorobenzofuran-2-yl)acetamide], for which the IC50 is under 50 nM.
With `O=C(N[C@H](CN1CCCC1)[C@H](O)c1ccc2c(c1)OCCO2)C(F)(F)/C=C/c1ccc(Cl)cc1` [Compound 25, (E)-4-(4-chlorophenyl)-N-((1R,2R)-1-(2,3-dihydrobenzo[b][1,4]dioxin-6-yl)-1-hydroxy-3-(pyrrolidin-1-yl)propan-2-yl)-2,2-difluorobut-3-enamide], the “% inhibition generated from Assay 1” value is reported as “B* (the compound had a % inhibition of greater than or equal to about 3% but less than about 50%)”.
On the same count and under the same terms, with `NC1CC2CCC(C1)N2C[C@@H](NC(=O)C(F)(F)c1cc2cc(Cl)ccc2o1)[C@H](O)c1ccc2c(c1)OCCO2` (stereo partly drawn) [Compound 26, N-((1R,2R)-3-(3-amino-8-azabicyclo[3.2.1]octan-8-yl)-1-(2,3-dihydrobenzo[b][1,4]dioxin-6-yl)-1-hydroxypropan-2-yl)-2-(5-chlorobenzofuran-2-yl)-2,2-difluoroacetamide] the entry was “B* (the compound had a % inhibition of greater than or equal to about 3% but less than about 50%)”.
In the case of `O=C(N[C@H](CN1CCCC1)[C@H](O)c1ccc2c(c1)OCCO2)C(F)(F)c1cc2cc(F)ccc2s1` [Compound 28, N-((1R,2R)-1-(2,3-dihydrobenzo[b][1,4]dioxin-6-yl)-1-hydroxy-3-(pyrrolidin-1-yl)propan-2-yl)-2,2-difluoro-2-(5-fluorobenzo[b]thiophen-2-yl)acetamide], the IC50 is under 50 nM.
